Among the data in patent publication US11739101B2, “Bifunctional degraders of hematopoietic progenitor kinase and therapeutic uses thereof” (Nurix Therapeutics, Inc., priority 2020, dated 2023) are Dmax values, retold here.

This assay addresses T1, HPK1 (Homo sapiens, UniProt Q92918).
T1 construct: A HiBiT tag was introduced by CRISPR on the N terminus of HPK1 in Jurkat cells; host or cells: Jurkat (ATCC TIB-152), monoclonal CRISPR HiBiT knock-in line
Briefly: HPK1 Cellular HiBiT Degradation Assay. The assay is classed as cell-based. The note with it: HiBiT-tagged HPK1 Jurkat cells, 24 hours, 10 uM to 0.1 nM; Dmax = 100 minus lowest % HPK1 remaining vs DMSO vehicle. The method, boiled down: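 Dmax is derived from four-parameter curves of % HPK1 remaining, as 100 minus the lowest value, normalized to DMSO-treated cells with parental Jurkat background subtracted. HiBiT-HPK1 knock-in Jurkat cells got compound for 24 hours (final 10 uM to 0.1 nM, 11 points) before lytic HiBiT luminescence. Cytotoxicity was checked on parallel CellTiter-Glo plates.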

T1 sequence (Q92918 whole entry): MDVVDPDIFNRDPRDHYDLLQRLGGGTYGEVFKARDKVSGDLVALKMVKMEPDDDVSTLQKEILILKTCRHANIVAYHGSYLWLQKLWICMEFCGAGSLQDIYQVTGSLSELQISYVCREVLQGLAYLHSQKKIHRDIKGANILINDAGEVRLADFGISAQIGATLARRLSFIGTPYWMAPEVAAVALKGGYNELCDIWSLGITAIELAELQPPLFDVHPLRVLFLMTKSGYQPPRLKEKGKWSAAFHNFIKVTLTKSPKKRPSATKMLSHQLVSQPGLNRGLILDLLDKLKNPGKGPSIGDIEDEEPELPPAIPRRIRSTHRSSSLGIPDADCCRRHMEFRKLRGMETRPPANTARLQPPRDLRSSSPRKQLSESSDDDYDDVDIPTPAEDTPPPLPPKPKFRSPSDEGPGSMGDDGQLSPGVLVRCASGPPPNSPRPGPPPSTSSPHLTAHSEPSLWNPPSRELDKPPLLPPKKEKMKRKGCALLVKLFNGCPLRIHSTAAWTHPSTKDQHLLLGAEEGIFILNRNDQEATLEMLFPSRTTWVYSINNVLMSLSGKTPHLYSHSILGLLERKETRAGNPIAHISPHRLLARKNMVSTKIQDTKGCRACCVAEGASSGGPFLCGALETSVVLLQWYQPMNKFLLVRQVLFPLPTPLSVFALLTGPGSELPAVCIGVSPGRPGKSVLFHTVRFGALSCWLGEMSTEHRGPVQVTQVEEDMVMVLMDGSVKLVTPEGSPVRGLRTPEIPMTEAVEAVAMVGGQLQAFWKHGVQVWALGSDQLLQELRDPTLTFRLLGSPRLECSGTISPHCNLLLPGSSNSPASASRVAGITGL

`Cc1cc(F)c(Nc2nc(-c3ccc4c(c3)N([C@H]3C[C@@H](N5CCCCC5)C3)C(=O)C43CCN(C(=O)[C@@H]4CCN(C(=O)c5cnc(N6CCN(c7cccc8c7C(=O)N(C7CCC(=O)NC7=O)C8=O)CC6)cn5)C4)CC3)cc3ncn(C(C)C)c23)cc1C(=O)NC(C)C` (stereo partly drawn) [Example 86, 5-((6-(1′-((3R)-1-(5-(4-(2-(2,6-dioxopiperidin-3-yl)-1,3-dioxoisoindolin-4-yl)piperazin-1-yl)pyrazine-2-carbonyl)pyrrolidine-3-carbonyl)-2-oxo-1-((1s,3s)-3-(piperidin-1-yl)cyclobutyl)spiro[indoline-3,4′-piperidin]-6-yl)-3-isopropyl-3H-imidazo[4,5-c]pyridin-4-yl)amino)-4-fluoro-N-isopropyl-2-methylbenzamide] gave a Dmax of 45 to 65%.

`Cc1cc(F)c(Nc2nc(-c3ccc4c(c3)N([C@H]3C[C@@H](N5CCCCC5)C3)C(=O)C43CCN(C(=O)[C@H]4CCN(C(=O)[C@H]5CC[C@H](Nc6cccc7c6C(=O)N(C6CCC(=O)NC6=O)C7=O)CC5)C4)CC3)cc3ncn(C(C)C)c23)cc1C(=O)NC(C)C` (stereo partly drawn) [Example 87, 5-((6-(1′-((3S)-1-((1R,4S)-4-((2-(2,6-dioxopiperidin-3-yl)-1,3-dioxoisoindolin-4-yl)amino)cyclohexane-1-carbonyl)pyrrolidine-3-carbonyl)-2-oxo-1-((1s,3R)-3-(piperidin-1-yl)cyclobutyl)spiro[indoline-3,4′-piperidin]-6-yl)-3-isopropyl-3H-imidazo[4,5-c]pyridin-4-yl)amino)-4-fluoro-N-isopropyl-2-methylbenzamide] yielded a Dmax below 45%.

Regarding `Cc1cc(F)c(Nc2nc(-c3ccc4c(c3)N([C@H]3C[C@@H](N5CCCCC5)C3)C(=O)C43CCN(C(=O)c4ccc(C5CCN(CC(=O)NCCNc6cccc7c6C(=O)N(C6CCC(=O)NC6=O)C7=O)CC5)cc4)CC3)cc3ncn(C(C)C)c23)cc1C(=O)NC(C)C` (stereo partly shown) [Example 88, 5-[(6-{1′-[4-(1-{[(2-{[2-(2,6-dioxopiperidin-3-yl)-1,3-dioxoisoindol-4-yl]amino}ethyl)carbamoyl]methyl}piperidin-4-yl)benzoyl]-2-oxo-1-[(1s,3s)-3-(piperidin-1-yl)cyclobutyl]spiro[indole-3,4′-piperidin]-6-yl}-3-isopropylimidazo[4,5-c]pyridin-4-yl)amino]-4-fluoro-N-isopropyl-2-methylbenzamide], the Dmax is above 65%.

The compound `Cc1cc(F)c(Nc2nc(-c3ccc4c(c3)N([C@H]3C[C@@H](N5CCCCC5)C3)C(=O)C43CCN(C(=O)C4CCN(Cc5ccc(C(=O)NCCNc6cccc7c6C(=O)N(C6CCC(=O)NC6=O)C7=O)nc5)CC4)CC3)cc3ncn(C(C)C)c23)cc1C(=O)NC(C)C` (stereo partly shown) [Example 89, N-(2-{[2-(2,6-dioxopiperidin-3-yl)-1,3-dioxoisoindol-4-yl]amino}ethyl)-5-[(4-{[6-(4-{[2-fluoro-5-(isopropylcarbamoyl)-4-methylphenyl]amino}-3-isopropylimidazo[4,5-c]pyridin-6-yl)-2-oxo-1-[(s,3s)-3-(piperidin-1-yl)cyclobutyl]spiro[indole-3,4′-piperidin]-1′-yl]carbonyl}piperidin-1-yl)methyl]pyridine-2-carboxamide] showed a Dmax above 65%.

The compound `Cc1cc(F)c(Nc2nc(-c3ccc4c(c3)N([C@H]3C[C@@H](N5CCCCC5)C3)C(=O)C43CCN(C(=O)CN4CCC(c5ccc(C(=O)NCCNc6cccc7c6C(=O)N(C6CCC(=O)NC6=O)C7=O)cc5)CC4)CC3)cc3ncn(C(C)C)c23)cc1C(=O)NC(C)C` (stereo partly shown) [Example 90, 5-[(6-{1′-[2-(4-{4-[(2-{[2-(2,6-dioxopiperidin-3-yl)-1,3-dioxoisoindol-4-yl]amino}ethyl)carbamoyl]phenyl}piperidin-1-yl)acetyl]-2-oxo-1-[(1s,3s)-3-(piperidin-1-yl)cyclobutyl]spiro[indole-3,4′-piperidin]-6-yl}-3-isopropylimidazo[4,5-c]pyridin-4-yl)amino]-4-fluoro-N-isopropyl-2-methylbenzamide] yielded a maximal degradation (Dmax) of 45 to 65%.

`Cc1cc(F)c(Nc2nc(-c3ccc4c(c3)N([C@H]3C[C@@H](N5CCCCC5)C3)C(=O)C43CCN(C(=O)c4ccc(CN5CCN(c6ccc7c(c6)C(=O)N(C6CCC(=O)NC6=O)C7=O)CC5)cc4)CC3)cc3ncn(C(C)C)c23)cc1C(=O)NC(C)C` (stereo partly shown) [Example 91, 5-[(6-{1′-[4-({4-[2-(2,6-dioxopiperidin-3-yl)-1,3-dioxoisoindol-5-yl]piperazin-1-yl}methyl)benzoyl]-2-oxo-1-[(1s,3s)-3-(piperidin-1-yl)cyclobutyl]spiro[indole-3,4′-piperidin]-6-yl}-3-isopropylimidazo[4,5-c]pyridin-4-yl)amino]-4-fluoro-N-isopropyl-2-methylbenzamide] returned a maximal degradation (Dmax) of 45 to 65%.

Regarding `Cc1cc(F)c(Nc2nc(-c3ccc4c(c3)N([C@H]3C[C@@H](N5CCCCC5)C3)C(=O)C43CCN(C(=O)c4ccc(C(=O)N5C6CCC5CN(c5ccc7c(c5)C(=O)N(C5CCC(=O)NC5=O)C7=O)C6)cc4)CC3)cc3ncn(C(C)C)c23)cc1C(=O)NC(C)C` (stereo partly shown) [Example 93, 5-({6-[1′-(4-{3-[2-(2,6-dioxopiperidin-3-yl)-1,3-dioxoisoindol-5-yl]-3,8-diazabicyclo[3.2.1]octane-8-carbonyl}benzoyl)-2-oxo-1-[(1s,3s)-3-(piperidin-1-yl)cyclobutyl]spiro[indole-3,4′-piperidin]-6-yl]-3-isopropylimidazo[4,5-c]pyridin-4-yl}amino)-4-fluoro-N-isopropyl-2-methylbenzamide], the maximal degradation (Dmax) is 45 to 65%.

`Cc1cc(F)c(Nc2nc(-c3ccc4c(c3)N([C@H]3C[C@@H](N5CCCCC5)C3)C(=O)C43CCN(C(=O)c4ccc(C(=O)N5CCN(c6cccc7c6C(=O)N(C6CCC(=O)NC6=O)C7=O)CC5)cc4)CC3)cc3ncn(C(C)C)c23)cc1C(=O)NC(C)C` (stereo partly shown) [Example 95, 5-({6-[1′-(4-{4-[2-(2,6-dioxopiperidin-3-yl)-1,3-dioxoisoindol-4-yl]piperazine-1-carbonyl}benzoyl)-2-oxo-1-[(1s,3s)-3-(piperidin-1-yl)cyclobutyl]spiro[indole-3,4′-piperidin]-6-yl]-3-isopropylimidazo[4,5-c]pyridin-4-yl}amino)-4-fluoro-N-isopropyl-2-methylbenzamide] came in with a Dmax of 45 to 65%.

For `Cc1cc(F)c(Nc2nc(-c3ccc4c(c3)N([C@H]3C[C@@H](N5CCCCC5)C3)C(=O)C43CCN(C(=O)[C@H]4CC[C@@H](C(=O)N5CCC(Oc6cccc7c6C(=O)N(C6CCC(=O)NC6=O)C7=O)CC5)CC4)CC3)cc3ncn(C(C)C)c23)cc1C(=O)NC(C)C` (stereo partly drawn) [Example 96, 4-fluoro-N-isopropyl-5-[(3-isopropyl-6-{2-oxo-1-[(1s,3s)-3-(piperidin-1-yl)cyclobutyl]-1′-[(1s,4s)-4-[4-({2-[(3S)-2,6-dioxopiperidin-3-yl]-1,3-dioxoisoindol-4-yl}oxy)piperidine-1-carbonyl]cyclohexanecarbonyl]spiro[indole-3,4′-piperidin]-6-yl}imidazo[4,5-c]pyridin-4-yl)amino]-2-methylbenzamide], the Dmax is 45 to 65%.

Take `Cc1cc(F)c(Nc2nc(-c3ccc4c(c3)N([C@H]3C[C@@H](N5CCCCC5)C3)C(=O)C43CCN(C(=O)c4ccc(N(C)C5CCN(c6ccc7c(c6)C(=O)N(C6CCC(=O)NC6=O)C7=O)CC5)cc4)CC3)cc3ncn(C(C)C)c23)cc1C(=O)NC(C)C` (stereo partly shown) [Example 97, 5-{[6-(1′-{4-[(1-{2-[2,6-dioxopiperidin-3-yl]-1,3-dioxoisoindol-5-yl}piperidin-4-yl)(methyl)amino]benzoyl}-2-oxo-1-[(1s,3s)-3-(piperidin-1-yl)cyclobutyl]spiro[indole-3,4′-piperidin]-6-yl)-3-isopropylimidazo[4,5-c]pyridin-4-yl]amino}-4-fluoro-N-isopropyl-2-methylbenzamide]: the Dmax was in the range of 45 to 65%.
